Experimental data as given in patent publication US20060141013A1, “Lysine mixture and apparatus and method for administering lysine” (priority 2002, published 2006).

Assays:
[1] = maximum amount of L-lysine capable of being dissolved in water; assay type: physicochemical; details: water @ 20 °C
Protocol: Various different concentrations of L-lysine may be used in the mixture. In one embodiment, L-lysine is initially dissolved in water at a concentration of 500 mg/ml. The L-lysine/water solution is then mixed with the palatable base substance at a 1:1 ratio (i.e., 50% solution and 50% palatable base), resulting in an L-lysine concentration of 250 mg/ml. Given that the current recommended dosage of L-lysine is 250 to 1000 mg daily, two 2 ml doses may be administered daily. Alternatively, a single 4 ml dose may be administered (if the cat is willing to consume the 4 ml dose). It should be noted, however, that the underlying principles of the invention are not confined to any particular concentration of L-lysine or any particular dosage. For example, any concentration up to the maximum amount capable of being dissolved in water may be used (e.g., 64.2 gm/100 ml water @ 20 °C, or approximately 650 mg/ml). Moreover, the L-lysine solution may then be added to the palatable base at various different ratios, based on the desired L-lysine concentration and/or the desired consistency of the final mixture (e.g., 2:1, 3:1, 1:2, . . . etc).

[2] = water @ 20 °C; cited from earlier work
[3] = system: Feline herpesvirus type I (FHV-1); details: cats maintained on oral L-lysine; cited from earlier work

In the case of `NCCCC[C@H](N)C(=O)O` [L-lysine], the “maximum amount capable of being dissolved in water (approximate concentration)” value [1] is given as “approximately 650 mg/ml”, the “maximum amount capable of being dissolved in water” value [2] is given as 64.2 gm/100 ml and the “severity and duration of infection if signs of the virus reoccur” value [3] is given as “milder and of a shorter duration”. For the same molecule, the “time between ocular viral flare-ups” value [3] was “longer period of time between ocular viral flare-ups”.
